Laboratory results taken from ChEMBL document CHEMBL1201862, “PubChem BioAssay data set” (2004).
Blank lines part the entries; values can stand above or below the compound they belong to. Calls of active or inactive are those of the source.

How the values were obtained:
[1] = kidney cell line viability loss – HEK293T, luminescence plate reader, powder samples, set 4, cytotoxicity control, dose response (AID 651863); format: functional, cell-based; details: HEK293
[2] = molecular target: T1, Disintegrin and metalloproteinase domain-containing protein 17 (Homo sapiens, UniProt P78536); assay: exosite inhibitors of ADAM17, dose response, biochemical (AID 743260)
[3] = inhibition of ADAM10 peptide cleavage – biochemical, FRET peptide substrate, recombinant human ADAM10, selectivity assay for ADAM17 exosite inhibitor project, dose response (AID 743259);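 also: ADAM10 enzyme cleaving a FRET peptide substrate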
[4] = viability loss in HepG2 liver cells – cell-based, ATP luminescence, cherry-pick, set 6, cytotoxicity control, dose response (AID 1053125); format: functional
[5] = cells; details: HEK293
[6] = molecular target: NAD-dependent protein deacylase sirtuin-5, mitochondrial (Homo sapiens, UniProt Q9NXA8); assay: sirtuin-5 deacylation blockers, concentration series – biochemical, fluorescence imaging, cherry-pick, set 5, dose response (AID 720591);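 also: desuccinylation of succinyl peptide AMC substrate read as fluorescence after trypsin release; potency of inhibitors that lower fluorescence and may act on trypsin instead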
[7] = YAP1 overexpression rescue of CTGF inhibition – DLD1 cells, RT-qPCR, cherry-pick, mechanism study for YAP1 pathway inhibitor project, dose response (AID 1053127); format: functional, cell-based; details: DLD-1
[8] = CTGF mRNA reduction in DLD1 cells – cell-based, DLD1 colon cancer, RT-qPCR, cherry-pick, dose response (AID 1053122); format: functional; details: Cancer cell lines
[9] = P. falciparum Dd2 growth inhibitors, dose response, SYBR Green, cherry-picked samples (AID 1159567); format: functional, cell-based
[10] = MITF Orthogonal Assay: SK-MEL-5 CTG Assay Measured in Cell-Based System Using Plate Reader - 2084-02_Inhibitor_Dose_DryPowder_Activity_Set7.; format: functional
[11] = MITF: Counter assay: A375 proliferation Measured in Cell-Based System Using Plate Reader - 2084-03_Inhibitor_Dose_DryPowder_Activity_Set8.; format: functional; details: A-375
[12] = inhibitors of TRPM1-promoter reporter in SK-MEL-5 – cell-based, luciferase, dry powder, set 8, MITF inhibitor project, dose response (AID 624430); format: functional
[13] = cytotoxicity in MITF-independent A375 cells – cell-based, CellTiter-Glo luminescence, dry powder, set 4, counter-screen for MITF inhibitor project, dose response (AID 624364); format: functional; details: A-375;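 also: A375 melanoma cells are MITF independent so this is a counter screen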
[14] = viability loss in MITF-independent A375 cells – cell-based, CellTiter-Glo luminescence, dry powder, set 2, counter-screen for MITF inhibitor project, dose response (AID 624489); format: functional;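 also: actives are compounds lowering A375 viability meaning general cytotoxicity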
[15] = potency of ADAM10 substrate cleavage blockers – biochemical, QFRET, dose response (AID 743254);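 also: ADAM10 enzyme with the DM2 quenched FRET peptide as substrate; EDANS fluorescence gain as the protease cuts the substrate; inhibitor potency against ADAM10 proteolytic activity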
[16] = molecular target: T1, Disintegrin and metalloproteinase domain-containing protein 17; assay: inhibition of ADAM17 substrate cleavage – biochemical, quenched FRET substrate, counter-screen for ADAM10 exosite inhibitor project, dose response (AID 743253)

T1 sequence (P78536 whole entry, the tested form may be a part): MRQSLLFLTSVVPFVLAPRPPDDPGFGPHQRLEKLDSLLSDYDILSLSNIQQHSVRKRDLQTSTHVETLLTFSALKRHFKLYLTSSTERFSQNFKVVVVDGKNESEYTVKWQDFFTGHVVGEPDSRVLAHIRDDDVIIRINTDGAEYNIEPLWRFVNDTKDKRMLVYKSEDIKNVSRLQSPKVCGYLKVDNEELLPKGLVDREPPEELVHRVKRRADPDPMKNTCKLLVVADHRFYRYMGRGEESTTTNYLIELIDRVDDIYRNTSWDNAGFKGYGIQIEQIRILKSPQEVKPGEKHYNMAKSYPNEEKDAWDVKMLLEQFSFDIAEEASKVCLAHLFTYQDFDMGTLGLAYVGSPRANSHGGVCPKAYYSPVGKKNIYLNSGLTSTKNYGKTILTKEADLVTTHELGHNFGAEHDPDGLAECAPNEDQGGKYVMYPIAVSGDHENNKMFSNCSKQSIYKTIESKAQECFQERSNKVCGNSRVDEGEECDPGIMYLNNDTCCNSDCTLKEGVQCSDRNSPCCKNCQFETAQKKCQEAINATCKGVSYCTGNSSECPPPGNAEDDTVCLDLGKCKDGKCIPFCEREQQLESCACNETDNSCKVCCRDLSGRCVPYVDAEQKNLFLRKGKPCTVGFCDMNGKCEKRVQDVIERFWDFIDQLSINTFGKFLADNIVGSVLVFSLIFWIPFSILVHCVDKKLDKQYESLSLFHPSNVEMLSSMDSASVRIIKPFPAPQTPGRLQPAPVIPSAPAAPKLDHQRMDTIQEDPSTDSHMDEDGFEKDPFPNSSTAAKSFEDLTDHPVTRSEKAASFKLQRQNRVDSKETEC
Chain of NAD-dependent protein deacylase sirtuin-5, mitochondrial (Q9NXA8 whole entry): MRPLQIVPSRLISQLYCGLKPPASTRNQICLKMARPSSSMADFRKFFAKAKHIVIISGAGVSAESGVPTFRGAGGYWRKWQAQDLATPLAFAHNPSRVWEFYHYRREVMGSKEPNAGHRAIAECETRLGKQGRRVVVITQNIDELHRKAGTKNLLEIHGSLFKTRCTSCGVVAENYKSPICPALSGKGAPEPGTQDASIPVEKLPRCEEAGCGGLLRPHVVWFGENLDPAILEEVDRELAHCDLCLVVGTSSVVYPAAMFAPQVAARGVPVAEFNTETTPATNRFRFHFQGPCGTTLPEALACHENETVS

Structure (SMILES): Cc1cc(C)c(S(=O)(=O)Nc2ncnc3ccccc23)c(C)c1
AC50 [1]: 44.2 µM (active)

IC50 [2]: > 69.5 µM (inactive)
Structure (SMILES): COC(=O)C1=C(C)N(Cc2cccc(C(F)(F)F)c2)C(NCc2ccc3c(c2)OCO3)=NC1c1ccc(F)cc1 (configuration not stated)
IC50 [3]: > 69.5 µM (inactive)

Structure (SMILES): Cc1ccc(OCC(=O)NNc2c3ccccc3nc3ccccc23)cc1
AC50 [4]: > 52 µM (inactive)
AC50 [5]: 27.7 µM (active)

AC50 [6]: > 30 µM (inactive)
Structure (SMILES): CN(C)CCN(Cc1cccs1)S(=O)(=O)c1csc(C(N)=O)c1

Structure (SMILES): CO[C@@H]1CN(C)C(=O)c2ccc(NC(=O)c3nc4ccccc4s3)cc2OC[C@@H](C)N(Cc2cccnc2)C[C@H]1C
AC50 [7]: 19.6 µM (active)
AC50 [8]: 5.03 µM (active)
AC50 [9]: 4.6 µM (active)

Structure (SMILES): O=C1C=C(Nc2ccccc2Cl)C(=O)c2ccccc21
AC50 [10]: 0.172 µM (active)
AC50 [11]: > 70 µM (inactive)
AC50 [12]: 5.41 µM (active)

Structure (SMILES): O=C1C(Nc2ccccc2)=C(N2CCOCC2)C(=O)c2ccccc21
AC50 [13]: > 70 µM (inactive)
AC50 [14]: 65.7 µM (active)
AC50 ([14]; A-375): > 70 µM (inactive)

IC50 [15]: > 69.5 µM (inactive)
IC50 [16]: > 69.5 µM (inactive)
Structure (SMILES): CCOC(=O)c1c(NC(=O)CN2C(=O)NC(C)(c3ccc(OC(F)F)cc3)C2=O)sc(C)c1C (configuration not stated)
